Experimental data as given in patent US7053088B2, “Vanilloid receptor ligands and their use in treatments” (Amgen Inc., priority 2002, dated 2006).

Molecule `CC(C)(C)c1ccc(-c2cc(Nc3ccc4cc[nH]c4c3)ncn2)cc1` [Example 48] has a melting point of 194 to 196 °C. Molecule `Cc1ccc(Cl)cc1Nc1cc(-c2ccc(C(F)(F)F)cc2)ncn1` [Example 65] has a melting point of 144 to 146 °C. In the case of `Cc1cc(O)nc2cc(Nc3cc(-c4ccc(C(F)(F)F)cc4)ncn3)ccc12.Cl` [4-Methyl-7-{[6-(4-trifluoromethylphenyl)pyrimidin-4-yl]amino}quinolin-2-ol, hydrochloride], the melting point is reported as 373 °C (dec.). With `FC(F)(F)c1ccc(-c2cc(Nc3ccc4ncsc4c3)nnc2Cl)cc1` [Benzothiazol-6-yl-[6-chloro-5-(4-trifluoromethylphenyl)pyridazin-3-yl]amine] the melting point was 206.3 °C (dec.). `COc1cccc(Nc2cc(-c3ccc(C(C)(C)C)cc3)ncn2)c1` [[6-(4-tert-butylphenyl)pyrimidin-4-yl]-(3-methoxyphenyl)amine] showed a melting point of 184 to 187 °C. `FC(F)(F)c1ccc(-c2cc(Nc3ccc4cc[nH]c4c3)ncn2)cc1` [Example 42] gave a melting point of 231 to 232 °C. `FC(F)(F)c1ccc(-c2cc(Nc3ccc4scnc4c3)ncn2)cc1` [Benzothiazol-5-yl-[6-(4-trifluoromethylphenyl)pyrimidin-4-yl]amine] showed a melting point of 192.1 to 192.2 °C.
